Holding throughout (assay type): cell-based
Experiment [1] has as its system MDA-MB-231 (breast cancer). Briefly: Antiproliferative activity (CCK-8 cell viability), MDA-MB-231. The following applies: Homo sapiens, 72 h, read-out: Antiproliferative activity in cancerous cells, MDA-MB-231 (inhibition of cell growth); for inhibition at 3.3 µM: Compound concentration: 3.3 μM; for inhibition at 10 µM: Compound concentration: 10 μM. In a few lines: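 MDA-MB-231 breast cancer cells, grown in DMEM with 10% FBS, were plated in 96-well plates at 2,000-5,000 cells/well. Once attached, they were exposed to compound and incubated at 37° C. for 72 h. Viability was then measured with CCK-8 (10 μL per well, 4 h at 37° C.) by absorbance at 450 nm, relative to DMSO vehicle wells.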

Experiment [2] concerns A549 (lung adenocarcinoma). Briefly: Antiproliferative activity (CCK-8 cell viability), A549. The conditions noted are these: Homo sapiens, 72 h, read-out: Antiproliferative activity in cancerous cells, A549 (inhibition of cell growth); for inhibition at 3.3 µM: Compound concentration: 3.3 μM; for inhibition at 10 µM: Compound concentration: 10 μM. In a few lines: (§1)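 Cells grown in DMEM (HepG2, SW480), MEM (HeLa) or F-12K (A549), each with 10% FBS, then exposed to compound at 3.3, 10 or 30 μM for 72 h at 37 °C. CCK-8 absorbance at 450 nm; viability expressed as percent of DMSO-treated cells, graded as growth inhibition bands.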

In experiment [3] the test system is B16F10 (malignant melanoma). The experiment can be described thus: Antiproliferative activity (CCK-8 cell viability), B16F10. The following applies: Mus musculus, 72 h, read-out: Antiproliferative activity in cancerous cells, B16F10 (inhibition of cell growth); for inhibition at 3.3 µM: B16-F10, Compound concentration: 3.3 μM; for inhibition at 10 µM: B16-F10, Compound concentration: 10 μM. In a few lines:
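B16F10 melanoma cells grown in DMEM with 10% FBS were plated in 96-well plates at 2,000-5,000 cells/well. After attachment they were exposed to compound in medium for 72 h at 37° C. CCK-8 solution (10 μL) was then added, and after 4 h at 37° C absorbance was read at 450 nm.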

Experiment [4] concerns HeLa (cervical cancer). Briefly: Antiproliferative activity (CCK-8 cell viability), HeLa. The following applies: Homo sapiens, 72 h, read-out: Antiproliferative activity in cancerous cells, HELA (inhibition of cell growth); for inhibition at 3.3 µM: Compound concentration: 3.3 μM; for inhibition at 10 µM: Compound concentration: 10 μM. In a few lines: as §1
For experiment [5], the system named is SW480 (colon cancer). The experiment can be described thus: Antiproliferative activity (CCK-8 cell viability), SW480. The following applies: Homo sapiens, 72 h, read-out: Antiproliferative activity in cancerous cells, SW480 (inhibition of cell growth); for inhibition at 3.3 µM: Compound concentration: 3.3 μM; for inhibition at 10 µM: Compound concentration: 10 μM. In a few lines:
as §1

Experiment [6] concerns A431 (epidermoid carcinoma). Briefly: Antiproliferative activity (CCK-8 cell viability), A431. The following applies: Homo sapiens, 72 h, read-out: Antiproliferative activity in cancerous cells, A431 (inhibition of cell growth); for inhibition at 3.3 µM: A-431, Compound concentration: 3.3 μM; for inhibition at 10 µM: A-431, Compound concentration: 10 μM. In a few lines: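 A431 epidermoid carcinoma cells grown in DMEM with 10% FBS were plated at 2,000-5,000 cells/well in 96-well plates. After attachment they were exposed to compound at 3.3 μM, 10 μM, or 30 μM for 72 h at 37° C. Viability was then assessed by CCK-8 against DMSO vehicle-treated wells.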

Experiment [7] has as its system HepG2 (liver cancer). The experiment can be described thus: Antiproliferative activity (CCK-8 cell viability), HepG2. The conditions noted are these: Homo sapiens, 72 h, read-out: Antiproliferative activity in cancerous cells, HepG2 (inhibition of cell growth); for inhibition at 3.3 µM: Compound concentration: 3.3 μM; for inhibition at 10 µM: Compound concentration: 10 μM. In a few lines: as §1

A value given as a limit tells only on which side of the number the result lay.

This passage reports inhibition results from patent US20260184663A1, “INDENE COMPOUNDS, PHARMACEUTICAL COMPOSITIONS THEREOF, AND THEIR THERAPEUTIC APPLICATIONS” (NucMito Pharmaceuticals co. Ltd., priority 2022, published 2026).

For orientation: inhibition means the relative decrease from the control value, in per cent.

For `CC1=C(CC(=O)O)c2cc(F)ccc2/C1=C/c1ccc(CO)cc1` [E40, (E)-2-(5-Fluoro-1-(4-(hydroxymethyl)benzylidene)-2-methyl-1H-inden-3-yl)acetic acid], the inhibition at 3.3 µM in experiment [1], in experiment [2], in experiment [3], in experiment [4], in experiment [5] and in experiment [6] was less than 30% in each case. Further, in experiment [7], the inhibition at 3.3 µM is less than 30%. Further, the inhibition at 10 µM in experiment [1] is no less than 50%; in experiment [2], no less than 50%; in experiment [3], less than 30%; in experiment [4] it was less than 30%; in experiment [5] it was no less than 50%; in experiment [6], no less than 50%. The inhibition at 10 µM in experiment [7] is less than 30%. The inhibition at 30 µM is no less than 50% in experiment [1] (Compound concentration: 30 μM); no less than 50% in experiment [2] (Compound concentration: 30 μM); 30 to 50% in experiment [3] (B16-F10, Compound concentration: 30 μM); no less than 50% in experiment [4] (Compound concentration: 30 μM); no less than 50% in experiment [5] (Compound concentration: 30 μM); no less than 50% in experiment [6] (A-431, Compound concentration: 30 μM). The inhibition at 30 µM in experiment [7] (Compound concentration: 30 μM) is less than 30%.

For `CC1=C(CC(=O)O)c2cc(F)ccc2/C1=C\c1ccc(Oc2ccc(Cl)c(F)c2)cc1` [C56, (Z)-2-(1-(4-(4-Chloro-3-fluorophenoxy)benzylidene)-5-fluoro-2-methyl-1H-inden-3-yl)acetic acid], the inhibition at 3.3 µM in experiment [1] is no less than 50%; in experiment [2], less than 30%; in experiment [3], no less than 50%; in experiment [4] it was no less than 50%; in experiment [5] it was less than 30%; in experiment [6], no less than 50%. For the same compound, the inhibition at 3.3 µM in experiment [7] was less than 30%. For the same compound, the inhibition at 10 µM is no less than 50% in experiment [1]; less than 30% in experiment [2]; no less than 50% in experiment [3]; no less than 50% in experiment [4]; no less than 50% in experiment [5]; no less than 50% in experiment [6]. For the same compound, the inhibition at 10 µM in experiment [7] is less than 30%.

As to `CC1=C(CC(=O)O)c2cc(F)ccc2/C1=C\c1ccc(Oc2ccc(Cl)cc2)cc1C` [C64, (Z)-2-(1-(4-(4-Chlorophenoxy)-2-methylbenzylidene)-5-fluoro-2-methyl-1H-inden-3-yl)acetic acid], the inhibition at 3.3 µM in experiment [1] is less than 30%; in experiment [2], 30 to 50%; in experiment [3], 30 to 50%; in experiment [4] it was no less than 50%; in experiment [5], less than 30%; in experiment [6] it was no less than 50%. For the same compound, the inhibition at 3.3 µM in experiment [7] was no less than 50%. In addition, the inhibition at 10 µM in experiment [1] is 30 to 50%; in experiment [2] it was no less than 50%; in experiment [3] it was no less than 50%; in experiment [4], no less than 50%; in experiment [5], no less than 50%; in experiment [6], no less than 50%. Also, the inhibition at 10 µM in experiment [7] is no less than 50%.

With `CC1=C(CC(=O)O)c2cc(F)ccc2/C1=C\c1cccc(Oc2ccc(F)c(F)c2)c1` [C98, (Z)-2-(1-(3-(3,4-Difluorophenoxy)benzylidene)-5-fluoro-2-methyl-1H-inden-3-yl)acetic acid], the inhibition at 3.3 µM in experiment [1] is less than 30%; in experiment [2], less than 30%; in experiment [3] it was 30 to 50%; in experiment [4], less than 30%; in experiment [5], less than 30%; in experiment [6], less than 30%. Moreover, the inhibition at 3.3 µM in experiment [7] is less than 30%. Moreover, the inhibition at 10 µM in experiment [1] is 30 to 50%; in experiment [2], less than 30%; in experiment [3], no less than 50%; in experiment [4], no less than 50%; in experiment [5], less than 30%; in experiment [6] it was 30 to 50%. In addition, in experiment [7], the inhibition at 10 µM is no less than 50%.

Turning to `CC1=C(CC(=O)O)c2ccc(Cl)cc2/C1=C\c1ccc(Oc2ccc(F)cc2)cc1` [C67, (Z)-2-(6-Chloro-1-(4-(4-fluorophenoxy)benzylidene)-2-methyl-1H-inden-3-yl)acetic acid], the inhibition at 3.3 µM in experiment [1] was less than 30%; in experiment [2], less than 30%; in experiment [3], less than 30%; in experiment [4], less than 30%; in experiment [5] it was 30 to 50%; in experiment [6], 30 to 50%. The inhibition at 3.3 µM in experiment [7] fell in the range of 30 to 50%. For the same compound, the inhibition at 10 µM in experiment [1] was no less than 50%; in experiment [2], no less than 50%; in experiment [3], less than 30%; in experiment [4], less than 30%; in experiment [5] it was 30 to 50%; in experiment [6] it was no less than 50%. Further, in experiment [7], the inhibition at 10 µM was no less than 50%.

Consider `CC1=C(CC(=O)O)c2cc(F)ccc2/C1=C\c1ccc(Oc2ccc(O)c(Cl)c2)cc1` [C81, (Z)-2-(1-(4-(3-Chloro-4-hydroxyphenoxy)benzylidene)-5-fluoro-2-methyl-1H-inden-3-yl)acetic acid], for which the inhibition at 3.3 µM is 30 to 50% in experiment [1]; 30 to 50% in experiment [2]; less than 30% in experiment [3]; 30 to 50% in experiment [4]; less than 30% in experiment [5]; 30 to 50% in experiment [6]. Besides, the inhibition at 3.3 µM in experiment [7] is less than 30%. For the same compound, the inhibition at 10 µM in experiment [1] was no less than 50%; in experiment [2] it was no less than 50%; in experiment [3], no less than 50%; in experiment [4], no less than 50%; in experiment [5], less than 30%; in experiment [6] it was no less than 50%. For the same compound, the inhibition at 10 µM in experiment [7] was no less than 50%.

For `CC1=C(CC(O)CO)c2ccccc2/C1=C\c1ccc(Oc2ccc(F)cc2)cc1` (stereo not drawn) [A203, (Z)-3-(1-(4-(4-Fluorophenoxy)benzylidene)-2-methyl-1H-inden-3-yl)propane-1,2-diol], the inhibition at 3.3 µM in experiment [1] is less than 30%; in experiment [2], less than 30%; in experiment [3], less than 30%; in experiment [4], less than 30%; in experiment [5] it was less than 30%; in experiment [6], 30 to 50%. In experiment [7], the inhibition at 3.3 µM was less than 30%. For the same compound, the inhibition at 10 µM was no less than 50% in experiment [1]; no less than 50% in experiment [2]; no less than 50% in experiment [3]; no less than 50% in experiment [4]; 30 to 50% in experiment [5]; no less than 50% in experiment [6]. In addition, the inhibition at 10 µM in experiment [7] was less than 30%.
